The source of these data is US20240426807A1, “SCREENING SYSTEM” (Givaudan SA, priority 2021, published 2024).

Each structure is given as a SMILES string. “Also recorded” adds a separate entry of the source.

Common to all, as to type: cell-based
Test [1] has as its target T1, OR10G7 (Homo sapiens, UniProt Q8NGN6, T5S).
T1 construct: expressed in transfected cells
T1 sequence (Q8NGN6 1-311 T5S): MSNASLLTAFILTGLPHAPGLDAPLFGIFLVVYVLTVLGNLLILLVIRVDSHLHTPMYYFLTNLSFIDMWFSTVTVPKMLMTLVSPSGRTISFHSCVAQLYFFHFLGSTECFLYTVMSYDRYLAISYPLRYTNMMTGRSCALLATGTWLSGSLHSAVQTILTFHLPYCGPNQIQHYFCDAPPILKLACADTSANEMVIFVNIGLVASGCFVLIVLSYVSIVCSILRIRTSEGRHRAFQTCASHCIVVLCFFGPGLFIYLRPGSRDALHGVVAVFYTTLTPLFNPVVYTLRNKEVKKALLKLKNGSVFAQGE
The test is described as follows: Ligand-induced OR-dependent puromycin resistance, OR10G7 cells. Conditions: HEK293T, pGL4.29-CRE-Puro-Hygro-OR with OR10G7; musk ketone 10 μM, eugenol or isoeugenol 1 μM, ultravanil or vanitrope 100 μM; puromycin 0.015-16 μg/ml; PrestoBlue viability day 4. Here is the method: (§1) Stable clones selected with hygromycin containing a stable insertion of the pGL4.29-CRE-Puro-Hygro-OR construct described in Example 1 with either one of the receptors OR10G7, OR10G9 or OR5AN1 (NCBI Genbank Gene ID 390265, 219870 and 390195) were plated at a density of 3000 cells/per well in 200 μl Dubelcco's Modified Eagle medium (DMEM) in polyethyleneimide-coated, white 96 well microtiter plates with a transparent bottom. After cells were allowed to adhere for 24 h, they were exposed to different odorants (musk ketone at 10 μM, eugenol or isoeugenol at 1 μM, ultravanil or vanitrope at 100 μM). 7 h after odorant addition, 100 μl of the medium was removed and replaced with fresh medium with the same odorant concentrations and, in addition, puromycin to reach a final concentration of 0.015-16 μg/ml in 11 twofold dilution steps (day 1 of selection). On day 2 and 3, 100 μl of the medium was again removed and replaced with fresh medium with the same concentration of odorant and puromycin. On day 4 of the selection, medium from each well was removed completely, 100 ul PrestoBlue® cell viability reagent (ThermoFisher Scientific, Catalog No: 14200-083) diluted in phosphate buffered saline was added to each well and cells were incubated at 37° C. until a color change was visible in the wells containing no puromycin. The fluorescence was determined at 560 excitation and 590 nm emission to assess relative cell metabolic activity, which is the net result of cell growth and cell killing in presence of the different puromycin concentrations. The result was expressed as % viability relative to controls with no cells (0%) and cells treated with olfactory ligand only (100%).

Test [2] has as its target T2, OR5AN1 (Homo sapiens, UniProt Q8NGI8).
T2 construct: expressed in transfected cells
T2 sequence (Q8NGI8 1-311): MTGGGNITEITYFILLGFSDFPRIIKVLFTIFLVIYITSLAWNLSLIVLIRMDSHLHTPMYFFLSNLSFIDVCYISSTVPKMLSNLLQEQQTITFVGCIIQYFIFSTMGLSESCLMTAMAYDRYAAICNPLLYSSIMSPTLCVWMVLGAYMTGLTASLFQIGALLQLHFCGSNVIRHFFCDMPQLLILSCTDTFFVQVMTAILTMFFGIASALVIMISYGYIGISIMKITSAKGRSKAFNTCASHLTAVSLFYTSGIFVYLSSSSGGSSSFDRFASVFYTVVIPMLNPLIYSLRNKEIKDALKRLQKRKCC
Kind of test: Ligand-induced OR-dependent puromycin resistance, OR5AN1 cells. Conditions: HEK293T, pGL4.29-CRE-Puro-Hygro-OR with OR5AN1; musk ketone 10 μM, eugenol or isoeugenol 1 μM, ultravanil 100 μM; puromycin 0.015-16 μg/ml; PrestoBlue viability day 4. Here is the method: as §1

Test [3] addresses T3, OR10G9 (Homo sapiens, UniProt Q8NGN4).
T3 construct: expressed in transfected cells
T3 sequence (Q8NGN4 1-311): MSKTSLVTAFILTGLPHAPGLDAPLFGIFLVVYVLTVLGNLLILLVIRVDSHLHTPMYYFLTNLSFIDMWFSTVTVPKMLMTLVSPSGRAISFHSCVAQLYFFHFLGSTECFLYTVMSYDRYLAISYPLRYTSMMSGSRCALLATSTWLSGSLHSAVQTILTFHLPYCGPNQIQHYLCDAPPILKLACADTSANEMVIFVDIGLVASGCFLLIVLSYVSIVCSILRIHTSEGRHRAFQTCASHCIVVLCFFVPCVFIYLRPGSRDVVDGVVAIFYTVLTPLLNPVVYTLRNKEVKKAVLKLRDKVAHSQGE
Kind of test: Ligand-induced OR-dependent puromycin resistance, OR10G9 cells. Conditions: HEK293T, pGL4.29-CRE-Puro-Hygro-OR with OR10G9; musk ketone 10 μM, eugenol or isoeugenol 1 μM, ultravanil or vanitrope 100 μM; puromycin 0.015-16 μg/ml; PrestoBlue viability day 4. Here is the method: as §1

In the case of `C=CCc1ccc(O)c(OC)c1` [eugenol], the “puromycin resistance in presence of odorant versus solvent control” value in test [1] was “increased resistance to puromycin; also recorded: strongly enhanced puromycin resistance”; in test [2] it was “do not increase resistance over solvent control; also recorded: the resistance was equal to the solvent control”; in test [3], “no increased resistance”.
The matching figures for `CC(=O)c1c(C)c([N+](=O)[O-])c(C(C)(C)C)c([N+](=O)[O-])c1C` [musk ketone]: “does not increase resistance over solvent control; also recorded: no induced puromycin resistance over solvent control”, “increased resistance to puromycin; also recorded: enhanced puromycin resistance” and “no increased resistance”.
